Among the data in EP4741383A1, “COMPOUND AND USE THEREOF AS ANTI-CANCER DRUG” (Tyligand Bioscience (Shanghai) Limited, priority 2023, dated 2025) are IC50 values, retold here.

What is called IC50 is the concentration needed to halve the response being measured.

One experiment deals with MeWo. In words: CellTiter-Glo cell proliferation inhibition, MeWo. It counts as cell-based, human. The conditions noted are these: Homo sapiens, MeWo cells, CellTiter-Glo. As to the method: (§1) In this study, the CellTiter-Glo® Luminescent Cell Viability Assay kit from Promega was used to evaluate the inhibitory effects of the disclosed compounds on the proliferation of cell lines KYSE520 (a human esophageal squamous cell carcinoma cell line dependent on SHP2 for growth), MeWo (a human malignant melanoma cell line), and MV4-11 (an RTK-mutant human acute monocytic leukemia cell line).
Using essentially the same experimental materials, MeWo cells (ATCC, catalog #HTB-65) were treated similarly: when thawing the cells, the cryovial was rapidly shaken in a 37 °C water bath to thaw the cells within 1 minute. The thawed cell suspension was mixed with MEM/EBSS culture medium containing 10% FBS (HyClone, catalog #SH30024.01), centrifuged at 1000 rpm for 5 minutes, and the supernatant was discarded. The cell pellet was resuspended in 5 mL of complete culture medium (MEM/EBSS medium containing 10% FBS), placed in a cell culture flask with 25 cm^2 of bottom area, and cultured in a cell culture incubator at 37 °C, 95% humidity, and 5% CO2. Cell passaging was performed when the cell confluence reached approximately 80%. During cell passaging, the old culture medium was discarded, the cells were washed once with DPBS, and 1 mL of trypsin was added to digest the cells. When the cells dispersed into single cells and detached from the bottom of the cell culture flask, 3 mL of new complete culture medium was added to stop the digestion. After thoroughly mixing the cell suspension, 1/5 of the cell suspension was retained, 5 mL of new complete culture medium was added, and after thorough mixing, the cells were placed in a cell culture flask for further culture. Cell plating was performed when the cell confluence again reached approximately 80%. During cell plating, following the cell passaging method, 1/5 of the cell suspension was retained for further culture, and the remaining 4/5 of the cell suspension was placed in a 15 mL centrifuge tube. Cell viability was determined using the trypan blue exclusion method to ensure that cell viability was above 90%. A cell suspension with a density of 2.22 × 10^4 cells/mL was prepared using MEM/EBSS culture medium containing 5% FBS. 90 µL of the cell suspension was added to a 96-well cell culture plate, resulting in a cell density of 2000 viable cells/well in the cell culture plate. A control group without cells and without compounds, containing only complete culture medium (i.e., culture medium control), and a control group without compounds but containing cells (i.e., cell control) were set up. The cell plate was cultured overnight in the cell culture incubator. First, a 10 mM stock solution of the compound (Example compound and positive control compound 11a-1) in DMSO was serially diluted with DMSO at a 3-fold dilution, down to the 9th concentration. A 10th concentration containing only DMSO (without the compound) was also prepared as a control. Then, the DMSO solutions containing different concentrations of the compound were diluted 100-fold with complete culture medium, resulting in a 1% DMSO concentration in each solution. Finally, 10 µL of each solution was added to the corresponding wells of the cell culture plate, resulting in a starting compound concentration of 10 µM, with a 3-fold dilution between adjacent concentrations, and a 0.1% DMSO concentration in the cell culture plate. The cell plates were then incubated in a cell culture incubator for 72 hours.
(§2) For endpoint detection, CellTiter-Glo reagent (Promega, catalog number #G7573, CellTiter-Glo® Luminescent Cell Viability Assay Kit) was melt and each cell plate was moved to room temperature for equilibration for 30 minutes. 75 µL (KYSE520 cells) or 50 µL (MeWo cells and MV 4-11 cells) of CellTiter-Glo was added to each well of the corresponding cell plate. The plates were shaken on a track-mounted shaker for 2 minutes to fully lyse the cells. The cell plates were kept at room temperature for 8 minutes to stabilize the luminescence signal. […]

The subject of a further experiment is MV4-11. In words: CellTiter-Glo cell proliferation inhibition, MV4-11. It counts as cell-based, human. To be noted: Homo sapiens; MV4-11 cells, 72 hours, CellTiter-Glo; read-out: IC50 (µM) M V4-11.
Excerpt: as §1
Using essentially the same experimental materials, MV4-11 cells (Nanjing Cobio Biotechnology Co., Ltd., Catalog #CBP60522) were treated similarly: when thawing the cells, the cryovial was rapidly shaken in a 37 °C water bath to thaw within 1 minute. The thawed cell suspension was mixed with IMDM culture medium containing 10% FBS (HyClone, Catalog #SH30228.01), centrifuged at 1000 rpm for 7 minutes, and the supernatant was discarded. The cell pellet was resuspended in 5 mL of complete culture medium (IMDM medium containing 10% FBS) placed in a cell culture flask with 25 cm^2 of bottom area, and cultured in a cell culture incubator at 37 °C, 95% humidity, and 5% CO2. Cell passaging was performed when the cell density reached approximately 10^6 cells/mL. During cell passaging, the old cell suspension was thoroughly mixed, 1/5 of the cell suspension was retained, and 4 mL of new complete culture medium was added. After thorough mixing, the cells were placed back in the cell culture incubator for further culture. Cell plating was performed when the cell density again reached approximately 10^6 cells/mL. During cell plating, following the cell passage method, 1/5 of the cell suspension was retained for continued culture, and the remaining 4/5 of the cell suspension was placed in a 15 mL centrifuge tube. Cell viability was determined using the trypan blue exclusion method to ensure that cell viability was above 90%. A cell suspension with a density of 1.11 × 10^5 viable cells/mL was prepared using complete culture medium. 90 µL of the cell suspension was added to a 96-well cell culture plate, resulting in a cell density of 10000 viable cells/well. A control group without cells and without compounds, containing only complete culture medium (i.e., culture medium control) and a control group without compounds but containing cells (i.e., cell control) were set up. The cell plate was incubated overnight in the cell culture incubator. First, a 10 mM stock solution of the compound (Example compound and positive control compound 11a-1) in DMSO was serially diluted with DMSO at a 3-fold dilution, down to the 9th concentrations. A 10th concentration containing only DMSO (without the compound) was also prepared as a control. Then, the DMSO solutions containing different concentrations of the compound were diluted 100-fold with complete culture medium, resulting in a DMSO concentration of 1% in each solution. Finally, 10 µL of each solution was added to the corresponding wells of a cell culture plate, resulting in an initial compound concentration of 10 µM, with a 3-fold dilution between adjacent concentrations, and a DMSO concentration of 0.1% in the cell culture plate. The cell plate was then incubated in a cell culture incubator for 72 hours.
as §2, with “signal. A multi-mode microplate reader (PerkinEImer, Envision 2105 Multimode plate Read) was used to full-wavelength scan the luminescence value of each well.” for “signal.”

Molecule `O=C(Nc1ccc(-c2ccsc2)cc1)C(=O)Nc1ccc(-c2sc3cc(F)c(-c4nnn[nH]4)cc3c2C2CCC2)cc1` [Example 133] returned an IC50 in the experiment with MeWo (MeWo, 72 h) of 0.686 µM.

Take `CC1(O)CCC2(CCN(c3ccc(NC(=O)C(=O)Nc4ccc(-c5cc6cc(F)c(-c7nnn[nH]7)cc6n5C5CCC5)cc4)cc3)CC2)CC1` [Example 110]: the half-inhibitory concentration (IC50) came to 0.086 µM in the experiment with MeWo (MeWo, 72 h) and 0.133 µM in the experiment with MV4-11.

Consider `CC1(CO)CCN(c2ccc(NC(=O)C(=O)Nc3ccc(-c4cc5cc(F)c(-c6nnn[nH]6)cc5n4C4CCC4)cc3)cc2)CC1` [Example 40], for which the 50% inhibitory concentration (IC50) in the experiment on MeWo (MeWo, 72 h) was determined as 0.073 µM; in the experiment on MV4-11, 0.269 µM.

Take `CC1(O)CCC2(CC1)CN(c1ccc(NC(=O)C(=O)Nc3ccc(-c4cc5cc(F)c(-c6nnn[nH]6)cc5n4C4CCC4)cc3)cc1)C2` [Example 83]: the IC50 in the experiment on MV4-11 was found to be 0.133 µM.

For `O=C(Nc1ccc(-c2cc3cc(F)c(-c4nnn[nH]4)cc3n2C2CCC2)cc1)C(=O)Nc1ccc(N2CCC(CCO)C2)cc1` (stereo not shown) [Example 14], in the experiment with MV4-11, the IC50 was 0.155 µM.

For `O=C(Nc1ccc(-c2ccsc2)cc1)C(=O)Nc1ccc(-c2cc3ccc(-c4nnn[nH]4)cc3n2C2CCC2)cc1` [Example 122], it took 0.409 µM to reach half-maximal inhibition with MeWo (MeWo, 72 h) (IC50).

In turn, `O=C(Nc1ccc(-c2ccsc2)cc1)C(=O)Nc1ccc(-c2cc3cc(F)c(-c4nnn[nH]4)nc3n2C2CCC2)cc1` [Example 132] registered a 50% inhibitory concentration (IC50) in the experiment on MeWo (MeWo, 72 h) of 0.291 µM.

Turning to `COC1CC(n2c(-c3ccc(NC(=O)C(=O)Nc4ccc(N5CCC6(CCC(O)C6)CC5)cc4)cc3)cc3cc(F)c(-c4nnn[nH]4)cc32)C1` (stereo not shown) [Example 103], the IC50 in the experiment on MV4-11 turned out to be 0.124 µM.

Turning to `O=C(Nc1ccc(-c2cc3cc(F)c(-c4nnn[nH]4)cc3n2C2CCC2)cc1)C(=O)Nc1ccc(N2CC3(CCCOC3)C2)cc1` [Example 55], in the experiment with MV4-11, the 50% inhibitory concentration (IC50) amounted to 0.177 µM.

For the molecule `CC1(O)CC2CN(c3ccc(NC(=O)C(=O)Nc4ccc(-c5cc6cc(F)c(-c7nnn[nH]7)cc6n5C5(C)CCC5)cc4)cc3)CC2C1` (stereo not shown) [Example 118], the IC50 in the experiment on MV4-11 was 0.131 µM.

Take `Cn1cc(-c2ccc(NC(=O)C(=O)Nc3ccc(-c4cc5cc(F)c(-c6noc(=O)[nH]6)cc5n4C4CCC4)cc3)cc2)cn1` [Example 123]: the midpoint of inhibition in the experiment with MeWo (MeWo, 72 h), the IC50, lay at 0.118 µM.

`CC1(O)CCC2(CCN(c3ccc(NC(=O)C(=O)Nc4ccc(-c5cc6cc(F)c(-c7nnn[nH]7)cc6n5C5(C)CCC5)cc4)cc3)CC2)CC1` [Example 111]: the half-maximal inhibitory concentration (IC50) with MV4-11 worked out at 0.122 µM.

For `CC1(CO)CCN(c2ccc(NC(=O)C(=O)Nc3ccc(-c4cc5cc(F)c(-c6nnn[nH]6)cc5n4C4CCC4)cc3)cc2)C1` (stereo not shown) [Example 16], in the experiment with MV4-11, the IC50 turned out to be 0.137 µM.

Regarding `CC1(n2c(-c3ccc(NC(=O)C(=O)Nc4ccc(N5CCC6(CCC(O)C6)CC5)cc4)cc3)cc3cc(F)c(-c4nnn[nH]4)cc32)CCC1` (stereo not shown) [Example 101], in the experiment on MV4-11, the IC50 stood at 0.329 µM.

As to `CC(O)C1CCN(c2ccc(NC(=O)C(=O)Nc3ccc(-c4cc5cc(F)c(-c6nnn[nH]6)cc5n4C4CCC4)cc3)cc2)CC1` (stereo not shown) [Example 29], in the experiment on MV4-11, the IC50 came out at 0.13 µM.

On to `O=C(Nc1ccc(-c2cc3cc(F)c(-c4nnn[nH]4)cc3n2C2CC2)cc1)C(=O)Nc1ccc(N2CCC3(CCOC3)CC2)cc1` [Example 69], for which the midpoint of inhibition in the experiment on MeWo (MeWo, 72 h), the IC50, lay at 0.093 µM.

For the molecule `O=C(Nc1ccc(-c2ccsc2)cc1)C(=O)Nc1ccc(-c2oc3cc(F)c(-c4nnn[nH]4)cc3c2C2CCC2)cc1` [Example 130], in the experiment with MeWo (MeWo, 72 h), the IC50 turned out to be 0.162 µM.

Turning to `CC1(n2c(-c3ccc(NC(=O)C(=O)Nc4ccc(N5CCC6(CCC(O)CC6)CC5)cc4)cc3)cc3cc(F)c(-c4nnn[nH]4)cc32)CCC1` [Example 109], in the experiment with MV4-11, the half-inhibitory concentration (IC50) was determined as 0.243 µM.

For `N#CCc1cc(-c2ccc(NC(=O)C(=O)Nc3ccc(-c4cc5cc(F)c(-c6nnn[nH]6)cc5n4C4CCC4)cc3)cc2)cs1` [Example 2], the IC50 in the experiment with MV4-11 is 0.216 µM.

In turn, `O=C(Nc1ccc(-c2oc3cc(F)c(-c4nnn[nH]4)cc3c2C2CCC2)cc1)C(=O)Nc1ccc(N2CCC3(CCOC3)CC2)cc1` [Example 125] gave a 50% inhibitory concentration (IC50) in the experiment with MeWo (72 hours) of 0.764 µM.

The molecule `Cn1cc(-c2ccc(NC(=O)C(=O)Nc3ccc(-c4cc5cc(F)c(-c6nnc(C(F)(F)F)[nH]6)cc5n4C4CCC4)cc3)cc2)cn1` [Example 124] gave a half-inhibitory concentration (IC50) with MeWo (MeWo, 72 h) of 1.55 µM.

Consider `CC1(O)CC2(CCN(c3ccc(NC(=O)C(=O)Nc4ccc(-c5cc6cc(F)c(-c7nnn[nH]7)cc6n5C5(C)CCC5)cc4)cc3)CC2)C1` [Example 95], for which, in the experiment on MV4-11, the half-inhibitory concentration (IC50) amounted to 0.168 µM.

For the molecule `CC1(O)CC2CN(c3ccc(NC(=O)C(=O)Nc4ccc(-c5cc6cc(F)c(-c7nnn[nH]7)cc6n5C5CCC5)cc4)cc3)CC2C1` (stereo not shown) [Example 117], in the experiment with MV4-11, the IC50 was 0.127 µM.

With `O=C(Nc1ccc(-c2cc3cc(F)c(-c4nnn[nH]4)cc3n2C2CCC2)cc1)C(=O)Nc1ccc(N2CCC3(CCCOC3)C2)cc1` (stereo not shown) [Example 62], the IC50 in the experiment with MV4-11 was 0.202 µM.

With `O=C(Nc1ccc(-c2cc3cc(F)c(-c4nnn[nH]4)cc3n2C2CCC2)cc1)C(=O)Nc1ccc(N2CCC3(CCCOC3)CC2)cc1` [Example 74], the concentration for half-maximal inhibition (IC50) in the experiment with MV4-11 was 0.129 µM.

As for `CC1(n2c(-c3ccc(NC(=O)C(=O)Nc4ccc(N5CCC(CCO)CC5)cc4)cc3)cc3cc(F)c(-c4nnn[nH]4)cc32)CCC1` [Example 26], in the experiment with MV4-11, the IC50 was found to be 0.129 µM.

In the experiment on MeWo (72 hours), `O=C(Nc1ccc(-c2ccsc2)cc1)C(=O)Nc1ccc(-c2cc3cc(F)c(-c4nnn[nH]4)c(F)c3n2C2CCC2)cc1` [Example 134] registered an IC50 of 0.27 µM.

On to `O=C(Nc1ccc(-c2ccsc2)cc1)C(=O)Nc1ccc(-c2cc3ccc(-c4nnn[nH]4)nc3n2C2CCC2)cc1` [Example 129], for which it took 0.176 µM to reach half-maximal inhibition with MeWo (72 hours) (IC50).

With `O=C(Nc1ccc(-c2cc3cc(F)c(-c4nnn[nH]4)cc3n2C2CCC2)cc1)C(=O)Nc1ccc(N2CCC3(COC3)C2)cc1` [Example 59], the half-inhibitory concentration (IC50) in the experiment with MV4-11 amounted to 0.213 µM.
